Laboratory results from paper PMC5133562, “Engineering of a thermostable esterase Est816 to improve its quorum-quenching activity and the underlying structural basis” (Scientific Reports, 2016).
Positions count from the first letter of the chain named.

Legend:
Test in all cases: HPLC, […] nm; lactonase buffer kinetic assay (method of Thomas et al.)
Format in all cases: biochemical
Conditions in all cases: 30 °C; lactone hydrolysis
[1] = target: T1, Est816 (uncultured bacterium, UniProt Z9COY3ZA92, A133F/K155N/V216F, form not given)
T1 construct: full length, C-terminal 6xHis tag (pET-21b), E. coli BL21(DE3); catalytic triad S93, D214, H242
T1 sequence (Z9COY3ZA92 1-260 A133F/K155N/V216F): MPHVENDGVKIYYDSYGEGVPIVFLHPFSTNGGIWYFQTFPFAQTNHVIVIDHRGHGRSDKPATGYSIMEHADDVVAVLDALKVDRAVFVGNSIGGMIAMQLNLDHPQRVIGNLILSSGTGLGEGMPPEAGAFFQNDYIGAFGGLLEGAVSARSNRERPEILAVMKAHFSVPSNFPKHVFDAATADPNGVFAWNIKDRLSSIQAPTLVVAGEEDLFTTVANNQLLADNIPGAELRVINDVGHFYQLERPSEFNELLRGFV

[2] = target: T2, Est816 (uncultured bacterium, UniProt Z9COY3ZA92, V216A/N238K, form not given)
T2 construct: full length, C-terminal 6xHis tag (pET-21b), E. coli BL21(DE3); catalytic triad S93, D214, H242
T2 sequence (Z9COY3ZA92 1-260 V216A/N238K): T1 sequence (Z9COY3ZA92 1-260 A133F/K155N/V216F) with F133A, N155K, F216A, N238K

[3] = target: T3, Est816 (uncultured bacterium, UniProt Z9COY3ZA92, V216A, form not given)
T3 construct: full length, C-terminal 6xHis tag (pET-21b), E. coli BL21(DE3); catalytic triad S93, D214, H242
T3 sequence (Z9COY3ZA92 1-260 V216A): T1 sequence (Z9COY3ZA92 1-260 A133F/K155N/V216F) with F133A, N155K, F216A

[4] = target: T4, Est816 (uncultured bacterium, UniProt Z9COY3ZA92, A133V/K155N, form not given)
T4 construct: full length, C-terminal 6xHis tag (pET-21b), E. coli BL21(DE3); catalytic triad S93, D214, H242
T4 sequence (Z9COY3ZA92 1-260 A133V/K155N): T1 sequence (Z9COY3ZA92 1-260 A133F/K155N/V216F) with F133V, F216V

[5] = target: T5, Est816 (uncultured bacterium, UniProt Z9COY3ZA92, P27G/F28N, form not given)
T5 construct: full length, C-terminal 6xHis tag (pET-21b), E. coli BL21(DE3); catalytic triad S93, D214, H242
T5 sequence (Z9COY3ZA92 1-260 P27G/F28N): T1 sequence (Z9COY3ZA92 1-260 A133F/K155N/V216F) with P27G, F28N, F133A, N155K, F216V

[6] = target: T6, Est816 (uncultured bacterium, UniProt Z9COY3ZA92, L122A, form not given)
T6 construct: full length, C-terminal 6xHis tag (pET-21b), E. coli BL21(DE3); catalytic triad S93, D214, H242
T6 sequence (Z9COY3ZA92 1-260 L122A): T1 sequence (Z9COY3ZA92 1-260 A133F/K155N/V216F) with L122A, F133A, N155K, F216V

[7] = target: T7, Est816 (uncultured bacterium, UniProt Z9COY3ZA92, N238K, form not given)
T7 construct: full length, C-terminal 6xHis tag (pET-21b), E. coli BL21(DE3); catalytic triad S93, D214, H242
T7 sequence (Z9COY3ZA92 1-260 N238K): T1 sequence (Z9COY3ZA92 1-260 A133F/K155N/V216F) with F133A, N155K, F216V, N238K

SMILES: CCCCCCCC(=O)NC1CCOC1=O (racemic) [C8-HSL, N-octanoyl-DL-homoserine lactone]
- Km [1]: 759 ± 62.2 µM
- Km [2]: 1140 ± 101 µM
- Km [3]: 5800 ± 289 µM
- Km [4]: 3490 ± 146 µM
- Km [5]: 3090 ± 198 µM
- Km [6]: 105 ± 7.2 µM
- Km [7]: 210 ± 15.5 µM
